This note sets out measurements from patent US12655104B2, “Anticancer compounds selective for ER-positive cancers” (THE BOARD OF TRUSTEES OF THE UNIVERSITY OF ILLINOIS, priority 2020, dated 2026).

Read-outs that look alike come from different tables or passages of the source. A value given as a limit tells only on which side of the number the result lay.

For series [1], the system named is MDA-MB-231. In words: Alamar blue fluorescence viability (IC50), MDA-MB-231. The format is cell-based. As to conditions: for IC50: Homo sapiens. As to the method:
(§1) Cancer Cell Lines: Culturing Conditions and Validation. All cell lines were cultured at 37° C. with 5% CO2. All ERα-positive cell lines were grown in media lacking phenol red. MCF-7 were grown in EMEM with 10% FBS and 1% penicillin-streptomycin (P/S). T47D were cultured in MEM with 10% FBS and 1% P/S. TYS and TDG cells were grown in MEM supplemented with 10% CD-FBS and 1% P/S. HCT-116 and MDA-MB-231 cells were cultured in RPMI-1640 supplemented with 10% FBS and 1% P/S. MDA-MB-436 cells were cultured in DMEM supplemented with 10% FBS and 1% P/S. HT-29 were cultured in McCoy's media supplemented with 10% FBS and 1% P/S. All cell lines were used directly from ATCC stocks and/or have been further authenticated using PowerPlex16HS Assay (Promega) as described previously.^54 In short, >1 million cells were harvested and lysed using the cell lysis buffer (50 mM Tris, 50 mM EDTA, 25 mM sucrose, 100 mM NaCl, 1% SDS, pH 8). DNA extraction and short tandem repeats (STRs) profiling for each cell line were carried out at the University of Arizona Genetics Core (UAGC). Autosomal STR profiles were compared to reference databases such as ATCC, DSMZ, and JCRB.
Alamar Blue Fluorescence for Anticancer Activity (IC50). 2,000-15,000 cells per well were seeded a 96-well plate. Cells were allowed to adhere before DMSO stock solutions of test compounds were added to each well with a final concentration of DMSO in each well=1%; final volume: 100 μL. At the end of the desired incubation time (e.g., 24 or 72 hours), media in each well was aspirated and new fresh media (no compound, 100 μL) was added. Alamar blue solution (4 mg resazurin per 40 mL PBS) was then added (10 μL). After 2-6 hours incubation, each well's fluorescence (λexcit.=555 nm, λemission.=585 nm) was measured using a SpectraMax M3 plate reader (Molecular Devices). Percent dead was determined by comparison to a 100% dead control: 100 μM raptinal treated cells. Dose dependent curves and IC50 were calculated using Origin Pro V10.
On the technique in general: The colour change of resazurin is a common sign of viable cells or microbes.

A short description of series [2]: Maximum tolerated dose (MTD) in mice. The class given is in vivo. As to conditions: female, CD-1, in vivo, Mouse, single dose, read-out: MTD. The text has this:
(§2) Maximum Tolerated Dose (MTD) Experiments in Mice and Rats. […] Rodents were monitored for signs of distress, lethargy, neurotoxicity, and so forth for multiple days after compound administration. […] The MTD was defined as the maximum dose in which any acute side effects observed were tolerated and no lethality observed.

In series [3] the test system is CD-1 mice. In words: Maximum tolerated dose (MTD) in mice. The format is in vivo.
From the text: as §2

For series [4], the system named is T47D. In words: Alamar blue fluorescence viability (IC50), T47D. The class given is cell-based. To be noted: Homo sapiens, 24 h, read-out: IC50 24 hr (μM). The method, then: as §1, with “DNA extraction and short tandem repeats (STRs) profiling for each cell line were carried out at the University of Arizona Genetics Core (UAGC). Autosomal STR profiles were compared to reference databases such as ATCC, DSMZ, and JCRB.” left out
(§3) Alamar Blue Fluorescence for Anticancer Activity (IC50). […] After 2-6 hours incubation, each well's fluorescence (λexcit.=555 nm, λemission.=585 nm) was measured using a SpectraMax M3 plate reader (Molecular Devices). Percent dead was determined by comparison to a 100% dead control: 100 μM raptinal treated cells. Dose dependent curves and IC50 were calculated using Origin Pro V10.

In series [5] the test system is T47D-ERαD538G (TDG). In words: Alamar blue fluorescence viability (IC50), TDG. As to conditions: 24 h, read-out: IC50 24 hr (μM). The format is cell-based. As to the method:
as §1, with “DNA extraction and short tandem repeats (STRs) profiling for each cell line were carried out at the University of Arizona Genetics Core (UAGC). Autosomal STR profiles were compared to reference databases such as ATCC, DSMZ, and JCRB.” left out
as §3

The test system of series [6] is anticipatory unfolded protein response (a-UPR). In words: a-UPR immunoblotting/western blot in MCF-7 cells. The class given is cell-based. The method, then:
a-UPR Immunoblotting/Western Blot Procedure. 400,000 MCF-7 cells/per well were seeded into 6 or 12 well plates and allowed to adhere overnight. Media was then aspirated from each well and then fresh media with diluted test compound (0.1% DMSO concentration) was added accordingly. Cells were incubated for 4 or 6 hours, then harvested. PBS-washed cell pellets were then lysed using RIPA buffer containing phosphatase (BioVision) and protease inhibitor cocktail (Calbiochem). Protein concentrations were determined using the BCA assay (Pierce). Lysates containing 10-15 μg of protein were loaded onto 4-20% gradient gels (BioRad), and SDS-PAGE was run. Proteins were then transferred onto membrane (PDVF Millipore) and blots blocked with BSA solution (2 g in 40 mL TBST) for one hour. After blocking, primary antibody was added and incubated overnight (using manufacturer's recommended dilutions). Following overnight incubation, blots were washed with TBST (5-minute incubation for each wash, washed 3 times), then incubated with HRP-linked secondary antibody for 1 hour in TBST. Blots were washed (10-minute incubation for each wash for a total of two ten-minute washes). SuperSignal West Pico Solution was then added following manufacturer's procedures and blots imaged with ChemiDoc.
Antibodies. […]

Take `O=C1Nc2c(C(F)(F)F)cccc2[C@@]1(c1ccc(O)cc1)N1CCC(F)(F)CC1` (single isomer, unassigned) [ErSO-DFP]: in series [1] (Average Fold Change between 24/72 hr IC50 values for MCF-7 and MDA-MB-231), the “Fold Change” value worked out at 1882. In addition, the IC50 (usually the concentration that inhibits the measured activity by half) in series [1] (MDA-MB-231, 24 h, read-out: IC50 24 hr (μM)) was 55 ± 5 µM; in series [1] (MDA-MB-231, 72 h, read-out: IC50 72 hr (μM)) it was 32 ± 4 µM; in series [4] it was 0.016 ± 0.002 µM; in series [5], 0.009 ± 0.001 µM. Also, the MTD (in general, the largest dose that counted as tolerated) is 95 mg/kg in series [2] (iv, I.V.) and greater than 200 mg/kg in series [2] (po, P.O.). The “Fold Increase Rel. to ErSO (MTD)” value in series [3] (Mouse, I.V.) is given as 4.8. Besides, in series [3] (both mice and rats, administered intravenously), the “fold increase in tolerability relative to ErSO” value is listed as roughly 5 fold. Besides, in series [6], the “a-UPR activation (P-AMPK, P-EIF2α, cleavage of ATF6α p90), western blot” value was “activates the a-UPR in a time- and concentration-dependent manner”.
